According to patent publication US4666897A, “Inhibition of mammalian collagenolytic enzymes by tetracyclines” (Research Foundation of State University, priority 1983, dated 1987):

Assays:
[1] = target: T1, rat PMNL collagenolytic activity (PMNL collagenase) (Rattus norvegicus, UniProt O88766); assay: Rat PMNL collagenolytic activity in vitro (14C-collagen gel lysis); format: biochemical; settings: Table 2; PMNL extract (30 × 10^6 PMNLs per ml) + 20 ug/ml; control extract 39.0
T1 construct: An extract of PMNLs was prepared; from tissue; host or cells: extract of peritoneal exudate polymorphonuclear leucocytes of non-diabetic rats, elicited with glycogen
T1 sequence (O88766 102-466): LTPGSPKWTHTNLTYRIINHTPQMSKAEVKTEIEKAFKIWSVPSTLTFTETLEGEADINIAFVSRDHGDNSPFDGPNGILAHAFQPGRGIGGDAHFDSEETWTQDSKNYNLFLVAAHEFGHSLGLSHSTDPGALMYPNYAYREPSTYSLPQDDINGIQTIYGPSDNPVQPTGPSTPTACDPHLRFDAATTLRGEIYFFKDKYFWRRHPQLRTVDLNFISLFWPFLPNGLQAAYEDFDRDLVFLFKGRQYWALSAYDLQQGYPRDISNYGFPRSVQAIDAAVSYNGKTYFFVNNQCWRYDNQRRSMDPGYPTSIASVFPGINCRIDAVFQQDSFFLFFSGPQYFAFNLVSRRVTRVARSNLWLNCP
Procedure: To test the effect of physiologic levels of minocycline (the concentration in human serum, during a therapeutic regimen, is approximately 2 ug/ml; that in the gingival crevicular fluid is 4-5 times greater; Ciancio, et. al., 1980, J. Periodontol., 51, 531-534) on mammalian collagenolytic activity in vitro, peritonealexudate polymorphomuclear leucocytes (PMNLs) were collected from 15 mole (non-diabetic) rats 4 hours after I.P. injection of 0.15% glycogen. An extract of PMNLs was prepared, 250 μl aliquots of this extract were incubated with ^14 C-glycine labeled collagen fibrils for 14 hours at 35° C. (in the presence or absence of minocycline, or EDTA, or additional CaCl2), and collagenolytic activity was measured as described by Nicoll, et al., (Experientia., 37, 315-317).
The techniques used to measure the collagenolytic enzyme activity of gingival tissue in culture, and in polymorphonuclear leucocytes (PMNLs), are those described by Golub, et. al., (J. Dent. Res., 57, 520-525 (197)8) and Nicoll, et. al., (Experimentia, 37, 315-317, (1981)) with minor modifications.

[2] = test system: periodontal disease in patients; settings: patients who did not respond to routine periodontal therapy; cited from earlier work
rheumatoid arthritis = settings: in vivo; cited from earlier work
[3] = test system: periodontal disease in dogs; settings: dogs on long-term therapy; cited from earlier work
[4] = test system: fetal rat bones (radii and ulnae) in organ culture; assay: PTH-induced bone resorption in organ culture (45calcium release); format: cell-based
Procedure: The technique used to assess bone resorption is based on monitoring the release of radioactive calcium, previously incorporated by embryonic bones in vivo, during organ culture. Pregnant Sprague-Dawley rats were injected subcutaneously with 200 μCi of ^45 calcium chloride on the 18th day of gestation. The following day, the animals were killed, the fetuses removed, and the radii and ulnae dissected under aseptic conditions. […] The bones were then randomly distributed and each bone, either a radius or ulna, was incubated in 0.5 ml of culture media alone or in a media containing parathyroid hormone (PTH: human synthetic 1-34 peptide, Beckman Instruments, Inc., Palo Alto, California) added in a final concentration of 1.0 μg/ml; the experimental bones were incubated in the PTH containing medium to which was added different concentrations (0.2-300 μg/ml) of the antibiotics to be tested. The bones were cultured for 5 days, with the media being changed after day 2, and the incubation terminated. The bones were decalcified in 0.2 ml of 5% trichloroacetic acid and the ^45 calcium content of the residual bones and of the culture media was measured as described previously. (Werner and Raisz, Endocrinology, 90, 752 (1972 ) and Gomes, et. al., Calc. Tiss. Res., 19, 285 (1976)). The ^45 calcium released into the media was calculated as a percentage of the total radioactive calcium measured in the bones.

[5] = test system: ^14 C-glycine labeled collagen fibrils; assay: Lysis of 14C-collagen gel by control enzymes (no PMNL extract); format: biochemical; settings: Table 1, 1 μg enzyme

CN(C)[C@@H]1C(=O)C(C(N)=O)=C(O)[C@@]2(O)C(=O)C3=C(O)c4c(O)cccc4[C@@](C)(O)[C@H]3C[C@@H]12 [tetracycline, Tetracycline]
Collagenolytic Activity: % ^14 C-collagen gel lyzed [1]: 2.0%
clinical benefit of long-term use [2]: clinically beneficial
treatment of rheumatoid arthritis (rheumatoid arthritis): effective
periodontal disease [3]: significant improvement
^45 Calcium in Fetal Bone Released into Media (%) after 2 days incubation ([4]; Table 4, first column, PTH + 0.2 μg/ml): 58.4 ± 1.3%
^45 Calcium in Fetal Bone Released into Media (%) after 2 days incubation ([4]; Table 4, first column, PTH + 2.0 μg/ml): 59.9 ± 1.5%
^45 Calcium in Fetal Bone Released into Media (%) after 2 days incubation ([4]; Table 4, first column, PTH + 20 μg/ml): 45.0 ± 0.7%
^45 Calcium in Fetal Bone Released into Media (%) after 2 days incubation ([4]; Table 4, first column, PTH + 200 μg/ml): 14.4 ± 0.4%
^45 Calcium in Fetal Bone Released into Media (%) after 2 days incubation ([4]; Table 4, second column, PTH + 0.2 μg/ml): 93.0 ± 1.7%
^45 Calcium in Fetal Bone Released into Media (%) after 2 days incubation ([4]; Table 4, second column, PTH + 2.0 μg/ml): 97.2 ± 0.8%
^45 Calcium in Fetal Bone Released into Media (%) after 2 days incubation ([4]; Table 4, second column, PTH + 20 μg/ml): 69.4 ± 3.5%
^45 Calcium in Fetal Bone Released into Media (%) after 2 days incubation ([4]; Table 4, second column, PTH + 200 μg/ml): 19.8 ± 0.5%
effect on PTH-enhanced bone resorption, in words ([4]; concentrations 0.2-300 μg/ml): inhibited bone resorption in a dose responsive manner

B1: Trypsin: protease control for non-specific proteolysis of the collagen substrate (protein, UniProt P00760 24-246, looked up)
Serine protease 1: IVGGYTCGANTVPYQVSLNSGYHFCGGSLINSQWVVSAAHCYKSGIQVRLGEDNINVVEGNEQFISASKSIVHPSYNSNTLNNDIMLIKLKSAASLNSRVASISLPTSCASAGTQCLISGWGNTKSSGTSYPDVLKCLKAPILSDSSCKSAYPGQITSNMFCAGYLEGGKDSCQGDSGGPVVCSGKLQGIVSWGSGCAQKNKPGVYTKVCNYVSWIKQTIASN
Collagenolytic Activity: % ^14 C-collagen gel lysed [5]: 2.6%
